Measurements reported in patent publication US6627631B1, “Pharmaceutical composition containing desoxypeganine for the treatment of alcoholism” (priority 1999, dated 2003).

Tests used:
[1] = test system: ethanol-preferring rats (strain going back to the Finnish AA rat line); assay: Voluntary alcohol consumption of genetic ethanol-preferring rats (free choice of 10% ethanol or water); assay type: in vivo; conditions: for Alcohol consumption, absolute / Food intake / Alcohol preference (proportion of ethanol solution to total amount of drink) / Total amount of drink: n=6; for Food intake / Total amount of drink: not significant
Procedure: Influence of deoxypeganine HCl on the voluntary alcohol consumption of genetic ethanol-preferring rats.
The experimental animals were in each case 6 female rats of a strain which goes back to the Finnish AA rat line. The animals of this inbred strain prefer 10% alcohol as a drinking liquid if pure water is additionally offered to them (free choice).
The animals were kept individually in type 3 Makrolon cages at a room temperature of 23° C. and air changes nine times per hour. Dry feed granules (Altromin 1311; meal to which vitamins, minerals, amino acids and trace elements are added; manufacturer: Altromin
Spezialfutterwerke GmbH, Lage), drinking water and ethanol solution (10% v/v) were available to them in unrestricted amounts only during the dark phase from 20.00 hours to 08.00 hours, namely in special vessels which guarantee loss-free feeding and drinking. The amounts consumed were determined gravimetrically; the amounts of drink automatically and continuously with the aid of twelve weighing cells. The respective proportion of ethanol solution to the total amount of drink in % served as a measure of the alcohol preference: 0% means that only water, no ethanol solution, was drunk, 100% means that exclusively ethanol solution was drunk. The average alcohol preference of the untreated experimental animals was 78% or 83%.
Table: Influence of deoxypeganine HCl on the ingestive behavior of female ethanol-prefering rats (n=6). The values determined during the three-day preliminary period in each case are in round brackets.

cholinesterase = conditions: known pharmacological properties; cited from earlier work
[2] = in contrast to neostigmine; cited from earlier work
[3] = summary of the table, 15 and 30 mg/kg orally

SMILES	Desire for alcohol [1, 3]	Food intake and total amount of drink [1, 3]	Cholinesterase inhibition, mode of action (cholinesterase)	Degradation of acetylcholine and of dopamine (cholinesterase)	Blood-brain barrier passage [2]	Alcohol consumption, absolute ([1]; 15 mg/kg orally, preliminary period value 6.47 ± 0.43, p<0.01)	Food intake ([1]; 15 mg/kg orally, preliminary period value 55.2 ± 1.3)	Alcohol preference (proportion of ethanol solution to total amount of drink) ([1]; 15 mg/kg orally, preliminary period value 82.8 ± 6.4, p<0.01)	Total amount of drink ([1]; 15 mg/kg orally, preliminary period value 97.2 ± 2.3)	Alcohol consumption, absolute ([1]; 30 mg/kg orally, preliminary period value 6.30 ± 0.34, p<0.001)	Food intake ([1]; 30 mg/kg orally, preliminary period value 55.7 ± 2.1)	Alcohol preference (proportion of ethanol solution to total amount of drink) ([1]; 30 mg/kg orally, preliminary period value 77.8 ± 4.3, p<0.001)	Total amount of drink ([1]; 30 mg/kg orally, preliminary period value 100.9 ± 1.9)
c1ccc2c(c1)CN1CCCC1=N2 [deoxypeganine, 1,2,3,9-tetrahydropyrrolo[2,1-b]quinazoline]	considerably reduced	not significantly changed	reversibly acting cholinesterase inhibitors	inhibits not only the degradation of acetylcholine, but also that of dopamine	crosses the blood-brain barrier	–	–	–	–	–	–	–	–
Cl.c1ccc2c(c1)CN1CCCC1=N2 [deoxypeganine HCl]	–	–	–	–	–	3.17 ± 0.89 g/kg of BW	57.7 ± 2.6 ns g/kg of BW	45.0 ± 12.9 %	89.8 ± 5.6 ns g/kg of BW	3.71 ± 0.42 g/kg of BW	44.6 ± 7.6 ns g/kg of BW	51.7 ± 6.4 %	90.6 ± 6.1 ns g/kg of BW
